Measured values: article PMC4551907, “Identification of human telomerase assembly inhibitors enabled by a novel method to produce hTERT” (Nucleic Acids Research, 2015)

Key:
hTERT [1] = biological target: T1, hTERT (Homo sapiens, UniProt O14746); assay: RT-TRAP with recombinant telomerase ([…]); type: biochemical; parameters: gene TERT
hTERT [2] = biological target: T1, hTERT; assay: RT-TRAP and direct telomerase assay with reconstituted purified hTERT + hTR; preincubation with hTERT vs hTR; dilution (reversibility) test; type: biochemical; parameters: gene TERT; MBP-hTERT, purified from P. pastoris

T1 sequence (O14746 whole entry): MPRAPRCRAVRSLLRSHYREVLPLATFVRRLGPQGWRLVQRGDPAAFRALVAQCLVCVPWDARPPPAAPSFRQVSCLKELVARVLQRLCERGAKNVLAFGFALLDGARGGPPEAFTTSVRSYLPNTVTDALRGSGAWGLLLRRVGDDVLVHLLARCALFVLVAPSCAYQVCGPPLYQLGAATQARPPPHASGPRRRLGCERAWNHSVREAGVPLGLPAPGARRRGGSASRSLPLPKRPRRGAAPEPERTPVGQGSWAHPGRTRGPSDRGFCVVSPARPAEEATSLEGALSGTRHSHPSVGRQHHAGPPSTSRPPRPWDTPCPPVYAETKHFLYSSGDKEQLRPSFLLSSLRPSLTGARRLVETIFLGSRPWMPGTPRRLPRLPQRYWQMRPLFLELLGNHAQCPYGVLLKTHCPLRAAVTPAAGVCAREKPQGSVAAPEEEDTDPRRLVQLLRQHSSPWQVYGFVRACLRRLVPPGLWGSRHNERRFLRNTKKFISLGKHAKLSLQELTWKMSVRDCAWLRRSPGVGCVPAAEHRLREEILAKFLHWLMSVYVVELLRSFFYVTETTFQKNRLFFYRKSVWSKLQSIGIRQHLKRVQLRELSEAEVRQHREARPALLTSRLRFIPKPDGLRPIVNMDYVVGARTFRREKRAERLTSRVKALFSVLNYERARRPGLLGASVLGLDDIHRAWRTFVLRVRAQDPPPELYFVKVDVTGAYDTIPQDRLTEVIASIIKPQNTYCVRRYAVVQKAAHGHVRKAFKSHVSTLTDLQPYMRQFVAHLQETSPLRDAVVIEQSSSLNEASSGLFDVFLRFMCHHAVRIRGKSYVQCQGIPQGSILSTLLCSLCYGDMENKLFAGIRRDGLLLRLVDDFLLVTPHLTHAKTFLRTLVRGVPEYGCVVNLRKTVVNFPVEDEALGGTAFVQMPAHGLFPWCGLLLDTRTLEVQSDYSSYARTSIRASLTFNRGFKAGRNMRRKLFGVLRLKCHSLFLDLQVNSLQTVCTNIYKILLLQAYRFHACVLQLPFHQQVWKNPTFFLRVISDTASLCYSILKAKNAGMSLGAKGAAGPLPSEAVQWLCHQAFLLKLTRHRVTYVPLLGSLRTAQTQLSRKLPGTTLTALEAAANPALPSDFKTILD

Row | Structure (SMILES) | IC50 (hTERT [1]) | IC50 (hTERT [2])
1 | C/C(=C\C(=O)Nc1ccccc1C(=O)O)c1ccc2ccccc2c1 [BIBR1532] | ~0.08 µM | –
2 | NC1CC(N)C(O[C@H]2O[C@H](CNC(=O)[C@@H](N)CCCCNCc3ccc4nc5ccc6nc7ccccc7cc6c5cc4c3)[C@@H](O)C[C@H]2N)C(O)C1O[C@H]1O[C@H](CO)[C@@H](O)[C@H](N)[C@H]1O (some centres unmarked) [TAI1] | – | 0.5 ± 0.2 µM
